We go through six compounds from US7932264B2, “Sinomenine derivatives and preparation and uses thereof” (priority 2005, dated 2011).

What all share (format): cell-based
For test [1], the system named is LPS-induced TNF-α production. Briefly: Inhibition of LPS-induced TNF-α production in human whole blood culture. The settings on record: LPS 10 ng/ml, 6 h; for IC50: IC50 by program calcdemo, read-out: IC50 to inhibit LPS-induced TNF-α production. The protocol: (§1) Human blood sample (−20 ml) was taken from a peripheral venous (10 ml) of a healthy volunteer (20-50 years old, nonsmoker) using sterile endotoxin-free ethylenediaminetetraacetic (EDTA) tube and was immediately processed. The blood samples were divided into three different experimental conditions (groups): control, stimulating with LPS alone and LPS plus testing compound. Each group contained five blood samples from different individuals. In control group, 100 μl of whole blood sample were diluted with 900 μL of RPMI 1640 in 24 wells plate. In LPS only group or LPS plus testing compound group, 100 ul of whole blood were diluted with 1 μl testing compound or DMSO and 889 ul of RPMI 1640 (RPMI 1640 was consisted of 25 mM Hepes supplemented with 100 U/mL penicillin, 100 μg/mL streptomycin, 4 mM 1-glutamine, and 10% fetal calf serum) All samples from the three groups were incubated in 37° C. and 5% CO2 for 15 minutes, then 10 μl LPS (1 μg/ml) was added into these samples except samples of control group, and was kept in 37° C. and 5% CO2 for 6 h. The samples were placed on ice for 3 minutes and centrifuged for 10 min at 4° C. and 1500 g. The supernatants of the whole blood culture were taken and kept at −80° C. for analysis of TNF-α, IL-1, IL-6 and IL-8.
The samples from above described protocol were used to determine the release of TNF-α from whole blood culture induced by LPS stimulation and the inhibition by each of 22 tested compounds on the LPS-induced TNF-α production. The TNF-α production was assessed using human TNF-α Enzyme Immunometric Assay Kit (Lot. 235123) from R&D Systems (MN, USA), the detail methods are described as the instruction of the Kit. The concentration of LPS-induced TNF-α production in whole blood culture was 884.2±329.8 pg/ml. These 22 compounds were divided into three groups according to their inhibition potencies on the LPS-induced TNF-α production:
(§2) Since compounds #54 and #44 we obtained were mixed chemical isomers, these two compounds have been excluded from the IC50 experiments. […] concentrations of the compounds (#20, #33, #37, #39, and #48) were tested: 10^−9, 10^−8, 10^−7, 10^−6, 10^−5 and 10^−4 Molar/L. The parent compound, sinomenine, was used as a control. The IC50 was determined by program calcdemo.
The blood samples were incubated in the presence of LPS (concentration. 10 ng/ml) for 6 h. Sinomenine (SIN) was used as control. Because all tested compounds including SIN had no effect at concentration of 10^−9 on LPS-induced TNF-α production, the levels of LPS-induced TNF-α production at 10^−9 of tested compounds in the figures were equivalent to the levels of TNF-α in blood samples with LPS alone. Data in panel a of the figures (a1-a6) present the absolute values of TNF-α; data in panel b (b1-b6) present the percentage inhibition of the tested compounds on LPS-induced TNF-α production. All data were Mean±SD (n=6).

For test [2], the system named is LPS-induced IL-1 production. Briefly: Inhibition of LPS-induced IL-1 production in human whole blood culture. The settings on record: LPS 10 ng/ml, 6 h; for IC50: human whole blood culture, IC50 by program calcdemo, read-out: IC50 to inhibit LPS-induced IL-1 production. The protocol:
as §1, §2
The inhibition of tested compounds on LPS-induced IL-1 production was assessed using human IL-1βEnzyme Immunometric Assay Kit (Lot number 145020) from Cayman Chemical Company (MI, USA). The methods are briefly described according to the instructions supplied with the Kit. All reagents and solutions were supplied with the Kit:
1) Reagents and solutions were properly prepared for the experiments to determine bioactivity according to the instruction.
2) Standard solution provided with the Kit, blood sample with testing compound and blood sample with LPS alone which were prepared as above described, 50 ul for each of these solution or blood samples, was added to each well. Then, 10 μL of DTT, 5 μL of mouse serum and 100 μL of Fab′ were also added into each well together. The well was covered with the adhesive strip. Then those wells were incubated overnight at 4° C. A plate layout was provided to record standards and samples assayed. 3) Each well was washed by filling wash buffer (600 μL) using an autowasher. The liquid was completely removed at each step to ensure good performance. This process was repeated four times for a total of five washes. 4) 200 μL of Ellman's reagent was added to each well and the plate was covered with a piece of dark paper, incubated for 4 hours at room temperature with gentle shaking. 5) The optical density of each well was determined using a microplate reader set to 412 nm.
The blood samples were incubated in the presence of LPS (concentration: 10 ng/ml) for 6 h. The inhibition of Sinomenine (SIN) on LPS-induced IL-1 production was also examined. Because all tested compounds including SIN had no effect at concentration of 10^−9 on LPS-induced IL-1 production, the levels of LPS-induced IL-1 production at 10^−9 of tested compounds in the figures were equivalent to the levels of IL-1 in blood samples with LPS alone. […]

In test [3] the test system is LPS-induced IL-6 production. Briefly: Inhibition of LPS-induced IL-6 production in human whole blood culture. The settings on record: LPS 10 ng/ml, 6 h; for IC50: human whole blood culture, IC50 by program calcdemo, read-out: IC50 to inhibit LPS-induced IL-6 production. How it is done: as §1, §2
The inhibition of tested compounds on LPS-induced IL-6 production was assessed using human IL-6 Elisa Kit (Lot number 054204D) from Biosource (Carlsbad, Calif., USA). The methods are briefly described according to the instruction in the Kit as below, all reagents and solutions were supplied with the Kit:
(§3) 1) Reagents and solutions were properly prepared for the experiments to determine bioactivity according to the instruction of the Kit.
2) 50 μL of standard solution supplied with the Kit, blood sample with testing compound and blood sample with LPS alone was added per well. Then, 50 μL of Biotin Conjugate was added to each well. The well was covered with the adhesive strip. Then those wells were incubated for 2 hours at room temperature. 3) Each well was aspirated and washed by filling wash buffer (600 μL) using an autowasher. The liquid was completely removed at each step to ensure good performance. This process was repeated three times for a total of four washes. 4) 100 μL of Streptavidin-HRP working solution was added to each well and the well was covered with a new adhesive strip, incubated for 30 min at room temperature. 5) The same aspiration and wash procedures were repeated as described in step 3. 6) 100 μL of Stabilized Chromogen was added to each well and incubated for 30 minutes at room temperature. These wells were protected from light. 7) 100 μL of Stop Solution was added to each well. 8) The optical density of each well was determined within 30 minutes using a microplate reader set to 450 nm.
The blood samples were incubated in the presence of LPS (concentration: 10 ng/ml) for 6 h. The effects of sinomenine (SIN) on LPS-induced IL-6 production were also examined. […]

For test [4], the system named is LPS-induced IL-8 production. Briefly: Inhibition of LPS-induced IL-8 production in human whole blood culture. To be noted: LPS 10 ng/ml, 6 h; for IC50: human whole blood culture, IC50 by program calcdemo, read-out: IC50 to inhibit LPS-induced IL-8 production. The protocol:
as §1, §2
The inhibition of tested compounds on LPS-induced IL-8 production was assessed using human IL-8 Elisa Kit (Lot number 061302B) from Biosource (Carlsbad, Calif., USA). The methods are briefly described according to the instruction in the Kit as below, all reagents and solutions were supplied with the Kit:
as §3
2) Standard solution supplied with the Kit, blood sample with testing compound and blood sample with LPS alone was (50 μL of each item) added into per well. Then, 50 μL of Biotin Conjugate was also added to each well. The well was covered with the adhesive strip. Then those wells were incubated for 1.5 hours at room temperature. 3) Each well was aspirated and washed by filling wash buffer (600 μL) using an autowasher. The liquid was completely removed at each step to ensure good performance. This process was repeated three times for a total of four washes. 4) 100 μL of Streptavidin-HRP working solution was added to each well and the well was covered with a new adhesive strip, incubated for 30 min at room temperature. 5) The same aspiration and wash procedures were repeated as described in step 3. 6) 100 μL of Stabilized Chromogen was added to each well and incubated for 30 minutes at room temperature. These wells were protected from light. 7) 100 μL of Stop Solution was added to each well. 8) The optical density of each well was determined within 30 minutes using a microplate reader set to 450 nm.
The blood samples were incubated in the presence of LPS (concentration: 10 ng/ml) for 6 hours. The effects of sinomenine (SIN) on LPS-induced IL-8 production were also examined. […]

In general, IC50 refers to the point on the concentration scale where inhibition reaches its midpoint. By inhibition is commonly meant how much of the control response was suppressed.

Consider `COC(=O)c1cccc(C)c1S(=O)(=O)N1CC[C@@]23CC(=O)C(OC)=C[C@@H]2[C@@H]1Cc1ccc(OC)c(O)c13` [Compound 33], for which the IC50 in test [1] (human whole blood culture) is 4.4 µM; in test [2], 100 µM; in test [3] it was 8.7 µM; in test [4] it was 7300 µM.

Take `COC1=C[C@@H]2[C@@H]3Cc4ccc(OC)c(O)c4[C@]2(CCN3C(=O)c2ccc(C)cc2)CC1=O` [Compound 39]: the IC50 in test [1] (human whole blood culture) is 13 µM; in test [2], 4900 µM; in test [3], 5.3 µM.

In the case of `COC1=CC2[C@@H]3Cc4ccc(OC)c(O)c4[C@]2(CCN3C)CC1=O` (stereo partly drawn) [Compound 1, sinomenine], the “effect on LPS-induced TNF-α production at concentration of 10^−9” value in test [1] (10^−9 mol/L) is “no effect”. The “effect on LPS-induced IL-1 production at concentration of 10^−9” value in test [2] (10^−9 mol/L) is given as “no effect”. Moreover, the “effect on LPS-induced IL-6 production at concentration of 10^−9” value in test [3] (10^−9 mol/L) is “no effect”. Also, the IC50 in test [3] is 1700 µM; in test [4], 74 µM. Also, the “effect on LPS-induced IL-8 production at concentration of 10^−9” value in test [4] (10^−9 mol/L) is on record as “no effect”.

As for `COC1=C[C@@H]2[C@@H]3Cc4ccc(OC)c(O)c4[C@]2(CCN3C(=O)c2cccnc2)CC1=O` [Compound 37], the IC50 was 420 µM in test [1] (human whole blood culture), 8.8 µM in test [2] and 7600 µM in test [4].

For the compound `COC1=CC2[C@@H]3Cc4ccc(OC)c(O)c4[C@]2(CCN3C(=O)c2cc(C)cc(C)c2)CC1=O` (stereo partly drawn) [Compound 9], in test [1] (compound 10^−5 mol/L, human whole blood culture, read-out: inhibition of LPS-induced TNF-α production compared to LPS alone), the inhibition at 10 µM is below 30%.

On to `COc1ccc2c(c1OC)C13CCN(C)C(C2)C1CC=NN(S(=O)(=O)c1ccc(C)cc1)C(O)C3` (stereo not drawn) [Compound 48], for which the IC50 in test [1] (human whole blood culture) is 760 µM; in test [2] it was 9500 µM; in test [3], 1000 µM; in test [4], 3800 µM.
